pIC50: −log10 of the molar value.
Tests used:
[1] = Brain permeation assay in mice; type: in vivo; settings: B/C, mouse, oral; female mice, 5 mg/kg intragastric, 4 h after administration; read-out: Brain permeation (ratio of compound concentration in brain tissue to concentration in plasma)
Method: The objective of this example was to test whether the compounds of the present disclosure are able to cross the blood-brain barrier (BBB). The compounds of the present disclosure were dissolved in a vehicle containing 5% dimethyl sulfoxide, 60% 1,3-propanediol, and 35% purified water, and intragastrically administered to B/C female mice aged 6 weeks (purchased from Guangdong Medical Laboratory Animal Center) at 5 mg/kg. The animals were sacrificed 4 h after the administration, and blood and brain tissue samples were collected. The blood samples were anticoagulated with K2-EDTA and centrifuged at 5000 rpm for 5 min to separate plasma. The brain tissue samples were accurately weighed and homogenized with a certain amount of phosphate-buffered saline (PBS) solution, and the biological samples were stored at −80° C. before analysis. After sample extraction, the compound concentration was determined using a liquid chromatography-tandem mass spectrometry (LC-MS/MS) system. Brain permeation was defined as the ratio of the compound concentration in brain tissue to the concentration in plasma.

[2] = molecular target: T1, VEGFR2 (Homo sapiens, UniProt P35968); test: HTRF KinEASE test against VEGFR2, reported as relative selectivity IC50-VEGFR2/IC50-Aurora B; type: biochemical; settings: ratio of IC50 against VEGFR2 to IC50 against Aurora B
T1 construct: purchased Carna 08-191
Method: (§1) Preparation of working solutions of compounds in DMSO with gradient concentrations: 0.2 mM solutions of the compounds in DMSO were prepared and serially diluted with DMSO to form working solutions with 10 gradient concentrations (corresponding to final compound concentrations of 1000 nM, 300 nM, 100 nM, 30 nM, 10 nM, 3 nM, 1 nM, 0.3 nM, 0.1 nM, and 0.03 nM in the reaction system).
(§2) Tests of inhibitory activity against Aurora B kinase and VEGFR2: The half maximal inhibitory concentrations (IC50) of the compounds against Aurora B kinase and VEGFR2 were determined using HTRF KinEASE-TK kit (Cisbio, Cat #62TKOPEC) and HTRF KinEASE-STK kit (Cisbio, Cat #61ST2BLE). A 2× kinase & Metal solution (Aurora B/Cat #05-102 and VEGFR2/Cat #08-191, both purchased from Carna) and a 2× Substrate & ATP solution (for Aurora B and VEGFR2, substrates S2 and TK were used, respectively) were prepared according to the kit instructions. The working solutions of the test compounds with gradient concentrations were added to a 384-well plate at 25 nL/well, and 2.5 μL of the 2× kinase & Metal solution was added to each well. The plate was sealed with a plate-sealing film, well shaken, centrifuged, and then incubated at 25° C. for 10 min. Then, the 2× Substrate & ATP solution was added at 2.5 μL/well, and the plate was incubated again at 25° C. for 30 min. Finally, a 2× XL665 & Antibody kinase detection reaction solution was added at 5 μL/well. After the plate was incubated at 25° C. for 60 min, the fluorescence signals at wavelengths of 665 nm and 620 nm in each well were measured by a microplate reader.
(§3) The 665 nm/620 nm fluorescence signal ratio (X) of each well was calculated. With the compound-free well as a negative control (Y) and the enzyme-free well as a positive control (Z), the inhibition rate of the compound in each test well against the corresponding kinase was calculated using the formula: inhibition (%)=100%−(X−Z)/(Y−Z)×100%, and the half maximal inhibitory concentration (IC50) of each compound against the corresponding kinase was calculated by GraphPad 7.0 software.

[3] = molecular target: Aurora B kinase (Homo sapiens, UniProt Q96GD4); test: HTRF KinEASE test of inhibitory activity against Aurora B kinase; type: biochemical; set-up: purchased Carna 05-102; settings: Carna kinase, substrate S2
Method: as §1, §2, §3

[4] = system: Molt-4 cells; test: Effects on tumor cell cycle, PI staining and flow cytometry; type: cell-based, human; settings: 48 h
Excerpt: When the activity of Aurora B kinase is inhibited in tumor cells, the arrangement and separation of chromosomes are blocked, leading to cytokinesis failure and the formation of tetraploid or polyploid cells. Moreover, severe genomic instability and mitotic catastrophe result in apoptosis. The intracellular DNA content can be mapped with propidium iodide (PI), a fluorescent dye that specifically binds to nucleic acid, so that cell states can be distinguished into sub-G0/G1 (apoptosis), G0/G1, S, G2/M (tetraploid), and polyploid states.
Experimental process: Molt-4 cells (human acute lymphoblastic leukemia cells, CRL-1582) were purchased from the American Type Culture Collection (ATCC). Molt-4 cells in the logarithmic growth phase were collected from suspension culture and counted. The cells were seeded into a 6-well plate at 10^6 cells/well and cultured overnight under normal conditions. The test compounds were prepared as 1 mM and 3 mM solutions in DMSO, and the solutions in DMSO were diluted 50-fold with culture medium. Finally, the above solutions were added to the culture system in a volume ratio of 1:19, achieving a final compound concentration of 1 μM or 3 μM in each well. After 48 h of incubation, the cells were collected by centrifugation. Each cell sample was resuspended in 300 μL of PBS, and the suspension was added dropwise to 700 μL of pre-cooled absolute ethanol. Then the mixture was gently inverted several times for thorough mixing to complete cell collection and fixation. The samples were left to stand at 4° C. for more than 12 h and then analyzed by flow cytometry.
A working dye solution was prepared by homogeneously mixing PBS, a 10 mg/mL PI stock solution, and a 10 mg/mL RNase A solution in a ratio of 1000:5:2. The fixed cell samples were centrifuged at 4° C. and 1000 rpm for 10 min. The supernatants were completely removed using a pipette, and the cells were washed twice with PBS and resuspended in the above working dye solution at […]. After incubation in a dark place at 37° C. for 30 min, the cells were filtered using a 200-mesh stainless steel strainer, and the filtrate was loaded onto a flow cytometer for cell cycle analysis (10,000 cells counted per sample).
Histograms showing DNA contents were obtained from the flow cytometry analysis, and the cell cycle distribution in each sample was analyzed using the flow cytometry data analysis software FlowJo. The mean (X) and standard deviation (SD) were calculated, and data were represented as X±SD. The apoptosis and the proportions of tetraploid and polyploid cells after Molt-4 cells were treated with different doses of the test compounds are shown in Table 3 below.

T1 sequence (P35968 790-1356 limits assumed): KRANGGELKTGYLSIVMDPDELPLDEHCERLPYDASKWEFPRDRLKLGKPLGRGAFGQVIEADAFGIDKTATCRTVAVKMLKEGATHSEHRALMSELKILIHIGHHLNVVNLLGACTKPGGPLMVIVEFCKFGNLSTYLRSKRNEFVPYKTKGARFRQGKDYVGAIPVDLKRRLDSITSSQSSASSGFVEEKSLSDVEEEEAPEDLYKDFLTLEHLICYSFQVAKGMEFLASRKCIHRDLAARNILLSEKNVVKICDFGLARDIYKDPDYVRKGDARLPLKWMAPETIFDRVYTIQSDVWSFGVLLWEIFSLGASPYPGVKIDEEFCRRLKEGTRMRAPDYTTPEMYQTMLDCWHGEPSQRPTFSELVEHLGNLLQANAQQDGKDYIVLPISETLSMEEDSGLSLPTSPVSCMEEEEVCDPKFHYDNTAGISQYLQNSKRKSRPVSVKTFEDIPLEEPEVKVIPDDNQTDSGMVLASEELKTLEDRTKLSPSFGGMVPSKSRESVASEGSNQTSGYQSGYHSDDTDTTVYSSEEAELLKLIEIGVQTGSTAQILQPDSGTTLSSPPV
Sequence of Aurora B kinase (Q96GD4 whole entry): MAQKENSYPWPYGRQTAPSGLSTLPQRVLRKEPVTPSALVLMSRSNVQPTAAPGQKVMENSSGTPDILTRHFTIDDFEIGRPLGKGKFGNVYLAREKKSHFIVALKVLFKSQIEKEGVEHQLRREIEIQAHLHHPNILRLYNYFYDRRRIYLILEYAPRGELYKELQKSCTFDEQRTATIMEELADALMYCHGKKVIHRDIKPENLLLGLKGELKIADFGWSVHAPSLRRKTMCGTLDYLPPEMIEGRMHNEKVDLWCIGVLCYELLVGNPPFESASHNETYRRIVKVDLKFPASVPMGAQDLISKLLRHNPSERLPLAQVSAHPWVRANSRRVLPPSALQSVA
Sequence of Aurora B kinase (Q9NQS7 803-916 partner limits assumed): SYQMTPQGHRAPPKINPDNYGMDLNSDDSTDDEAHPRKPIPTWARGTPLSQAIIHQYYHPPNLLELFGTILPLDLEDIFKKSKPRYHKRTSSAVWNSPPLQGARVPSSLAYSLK

SMILES	Selectivity for Aurora B IC50-VEGFR2/IC50-Aurora B [2]	pIC50 [3]	further results
CCOc1ccc2c(Oc3ccc4c(C(=O)Nc5ccccc5N)cccc4c3)ccnc2c1 [Compound I-1]	–	–	Kp at 4 h [1]: 0.73
CCOc1ccc2c(Oc3ccc4c(C(=O)Nc5ccc(F)cc5N)cccc4c3)ccnc2c1 [Compound I-5]	49.6	8.55	–
CCOc1ccc2c(Oc3ccc4c(C(=O)Nc5ccc(F)c(F)c5N)cccc4c3)ccnc2c1 [Compound I-6]	18.64	8.50	–
CC(C)Oc1ccc2c(Oc3ccc4c(C(=O)Nc5ccccc5N)cccc4c3)ccnc2c1 [Compound I-7]	0.17	6.38	–
COc1ccc2c(Oc3ccc4c(C(=O)Nc5cc(F)c(F)c(F)c5N)cccc4c3)ccnc2c1 [Compound I-10]	13.34	8.45	–
CCCOc1ccc2c(Oc3ccc4c(C(=O)Nc5ccccc5N)cccc4c3)ccnc2c1 [Compound I-11]	0.78	7.47	–
CCCOc1ccc2c(Oc3ccc4c(C(=O)Nc5ccc(F)cc5N)cccc4c3)ccnc2c1 [Compound I-12]	5.12	7.72	–
CCCCOc1ccc2c(Oc3ccc4c(C(=O)Nc5ccccc5N)cccc4c3)ccnc2c1 [Compound I-13]	0.27	6.90	–
CCCCOc1ccc2c(Oc3ccc4c(C(=O)Nc5ccc(C)cc5N)cccc4c3)ccnc2c1 [Compound I-14]	18.84	7.28	–
CCOc1ccc2c(Oc3ccc4c(C(=O)Nc5cc(F)ccc5N)cccc4c3)ccnc2c1 [Compound I-15]	–	–	Kp at 4 h [1]: 0.76
CCOc1cc(F)c2c(Oc3ccc4c(C(=O)Nc5ccccc5N)cccc4c3)ccnc2c1 [Compound I-17]	8.16	8.40	Kp at 4 h [1]: 0.6
CCOc1cc(F)c2c(Oc3ccc4c(C(=O)Nc5cccc(F)c5N)cccc4c3)ccnc2c1 [Compound I-18]	9.75	8.16	–
CCOc1cc(F)c2c(Oc3ccc4c(C(=O)Nc5ccc(F)c(F)c5N)cccc4c3)ccnc2c1 [Compound I-19]	9.08	8.25	–
CCOc1cc(F)c2c(Oc3ccc4c(C(=O)Nc5cc(F)ccc5N)cccc4c3)ccnc2c1 [Compound I-20]	–	–	Kp at 4 h [1]: 0.67
O=C(NC1CC(F)(F)C1)c1cccc2cc(Oc3ccnc4cc(OCCOC(F)F)ccc34)ccc12 [Compound I-21]	12.27	8.67	–
COCCOc1ccc2c(Oc3ccc4c(C(=O)NC5CC(F)(F)C5)cccc4c3)ccnc2c1 [Compound I-23]	9.49	8.91	–
COCCOc1ccc2c(Oc3ccc4c(C(=O)NC5CC6(COC6)C5)cccc4c3)ccnc2c1 [Compound I-24]	109.61	8.77	–
COCCOc1ccc2c(Oc3ccc4c(C(=O)NC5CC6(CCC6)C5)cccc4c3)ccnc2c1 [Compound I-25]	38.05	8.81	–
COCCOc1ccc2c(Oc3ccc4c(C(=O)NC5CC(F)C5)cccc4c3)ccnc2c1 (stereo not drawn) [Compound I-27]	10.23	9.05	–
Nc1c(F)cccc1NC(=O)c1cccc2cc(Oc3ccnc4cc(OCCOC(F)F)cc(F)c34)ccc12 [Compound I-28]	9.68	8.39	–
Nc1c(NC(=O)c2cccc3cc(Oc4ccnc5cc(OCCF)ccc45)ccc23)ccc(F)c1F [Compound I-32]	8.07	8.70	–
O=C(NC1CC(F)(F)C1)c1cccc2cc(Oc3ccnc4cc(OCCF)ccc34)ccc12 [Compound I-33]	376.79	8.58	–
O=C(NC1CCCCC1)c1cccc2cc(Oc3ccnc4cc(OCCF)ccc34)ccc12 [Compound I-35]	9.55	8.28	–
COc1cc(F)c2c(Oc3ccc4c(C(=O)Nc5ccc(F)c(Cl)c5N)cccc4c3)ccnc2c1 [Compound I-36]	7.75	8.53	–
COc1cc(F)c2c(Oc3ccc4c(C(=O)Nc5ccc(F)c(F)c5N)cccc4c3)ccnc2c1 [Compound I-37]	14.19	8.58	Apoptosis (%) DNA < 2N ([4]; dose 1 μM): 22.55 ± 0.21%; Polyploid (%) DNA > 4N ([4]; dose 1 μM): 55.25 ± 5.02%; Tetraploid (%) DNA = 4N ([4]; dose 1 μM): 4.68 ± 3.46%; Total (apoptosis + tetraploid + polyploid) ([4]; dose 1 μM): 82.48; Apoptosis (%) DNA < 2N ([4]; dose 3 μM): 23.75 ± 2.33%; Polyploid (%) DNA > 4N ([4]; dose 3 μM): 53.75 ± 4.17%; Tetraploid (%) DNA = 4N ([4]; dose 3 μM): 5.75 ± 3.15%; Total (apoptosis + tetraploid + polyploid) ([4]; dose 3 μM): 83.25; Kp at 4 h [1]: 0.6
O=C(NC1CC(F)(F)C1)c1cccc2cc(Oc3ccnc4cc(OCC(F)F)ccc34)ccc12 [Compound I-41]	127.51	8.65	–
CN(C)CCOc1ccc2c(Oc3ccc4c(C(=O)NC5CC(F)(F)C5)cccc4c3)ccnc2c1 [Compound I-42]	13.9	8.41	–
CCOc1ccc2c(Oc3ccc4c(C(=O)Nc5cc(F)c(F)c(F)c5N)cccc4c3)ccnc2c1 [Compound I-44]	12.14	8.17	–
